Our source for the stability constant and calcium chelation value values is patent US20200095192A1, “BIODEGRADABLE DIETHANOLAMINE DERIVATIVE CHELATING AGENT AND PREPARATION PROCESS THEREOF” (PTT Global Chemical Public Company Limited, priority 2017, published 2020).

Structures are written as SMILES. Where two headings read alike, the source gives them in different places.

The conditions of series [1]: barium (Ba^2+); previous disclosed chelating agent; cited from earlier work.
For series [2] the following is noted: calcium (Ca^2+); previous disclosed chelating agent; cited from earlier work.
For series [3] the following is noted: cadmium (Cd^2+); previous disclosed chelating agent; cited from earlier work.
For series [4] the following is noted: cobolt (Co^2+); previous disclosed chelating agent; cited from earlier work.
The conditions of series [5]: copper (Cu2+); previous disclosed chelating agent; cited from earlier work.
For series [6] the following is noted: iron (Fe^3+); previous disclosed chelating agent; cited from earlier work.
For series [7] the following is noted: magnesium (Mg^2+); previous disclosed chelating agent; cited from earlier work.
The conditions of series [8]: nickel (Ni^2+); previous disclosed chelating agent; cited from earlier work.
The conditions of series [9]: tin (Pb^2+); previous disclosed chelating agent; cited from earlier work.
For series [10] the following is noted: zinc (Zn^2+); previous disclosed chelating agent; cited from earlier work.
The conditions of series [11]: iron (Fe^2+); previous disclosed chelating agent; cited from earlier work.
For series [12] the following is noted: manganese (Mn^2+); previous disclosed chelating agent; cited from earlier work.
Series [13] is described as follows: calcium chelation value of crude ligand. The series is classed as physicochemical. On the set-up: unit not given here. The method, then: (§1) The diethanolamine derivatives and maleic anhydride can be synthesized by the reaction according to equation (I). The diethanolamine precursor, maleic anhydride, and selected catalyst were added into about 15-20 mL of dichloromethane solvent, wherein the amounts of each compounds were shown in table 1. Then, the obtained mixture was refluxed at the temperature of 50° C. until the reaction was completed. The amount of precursors being used was monitored. The solvent was removed from the obtained product. The obtained product was dissolved in 50 mL of distilled water and washed with dichloromethane for at least 3 times (30 mL each). After being washed, the obtained product was dried under vacuum and analyzed for its property using ^1H NMR spectroscopy and liquid chromatography mass spectrometry (LC/MS) technique.
as §1, with “succinic” for “maleic”, “(II).” for “(I).”, “3.” for “1.”, “in” for “in 50 mL of”, “water (50 mL)” for “water”
as §1, with “and succinic” for “and maleic”, “equation (III).” for “equation (I).”, “precursor, phthalic” for “precursor, maleic”, “table 5.” for “table 1.”, “in” for “in 50 mL of”, “water (50 mL)” for “water”

The nature of series [14]: stability constant by complex titration. The series is classed as physicochemical. The conditions noted are these: synthesized chelating agent. The text has this:
The analysis of stability constant between the synthesized chelating agent and metal ions can be performed by complex titration wherein the stability constant of the synthesized chelating agent and metal ions comparing to the previous disclosed degradable chelating agent can be performed according to table 7.

Setting [15] is: crude of ligand 1-1 to ligand 1-11 without purification.
The mark [16] stands for this setting: crude of ligand 2-1 to ligand 2-9 without purification.
The mark [17] stands for this setting: crude of ligand 3-1 to ligand 3-7 without purification.

Regarding `O=C(O)C[C@H](NCCN[C@@H](CC(=O)O)C(=O)O)C(=O)O` [EDDS, ethylene diamine-N,N-disuccinic acid], the stability constant in [1] is 3.0; in [2], 4.6; in series [3] it was 16.4; in series [4], 13.6; in series [5], 18.4; in series [6] it was 22.0. Also, the stability constant in series [7] is given as 6.0; in [8], 16.7; in [9] it was 12.7; in series [10], 13.4.

In the case of `CC(C(=O)O)N(CC(=O)O)CC(=O)O` (stereo not drawn) [MGDA, methylglycinediacetic acid], the stability constant in series [1] was 4.9; in [2], 7.0; in series [5] it was 13.9; in series [11], 8.1; in series [6], 16.5; in [7] it was 5.8. In addition, the stability constant in series [12] is on record as 8.4; in [8], 12.0; in [10] it was 10.9.

For `O=C(O)/C=C/C(=O)OCCN(CCOC(=O)/C=C/C(=O)O)C(=O)/C=C/C(=O)O` [ligand 1-1], the calcium chelation value in series [13] (setting [15]) is given as 4.

With `O=C(O)/C=C/C(=O)OCCN(CCOC(=O)/C=C/C(=O)O)C(=O)/C=C/C(=O)O` [ligand 1-2], the calcium chelation value in series [13] (setting [15]) is 15.

In the case of `O=C(O)/C=C/C(=O)OCCN(CCOC(=O)/C=C/C(=O)O)C(=O)/C=C/C(=O)O` [ligand 1-3], the calcium chelation value in series [13] (setting [15]) was found to be 13.

Take `O=C(O)/C=C/C(=O)OCCN(CCOC(=O)/C=C/C(=O)O)C(=O)/C=C/C(=O)O` [ligand 1-4]: the calcium chelation value in series [13] (setting [15]) was determined as 9.

Consider `O=C(O)/C=C/C(=O)OCCN(CCOC(=O)/C=C/C(=O)O)C(=O)/C=C/C(=O)O` [ligand 1-5], for which the calcium chelation value in [13] (setting [15]) came to 3.

On to `O=C(O)/C=C/C(=O)OCCN(CCOC(=O)/C=C/C(=O)O)C(=O)/C=C/C(=O)O` [ligand 1-7], for which the calcium chelation value in [13] (setting [15]) is 46.

Consider `O=C(O)/C=C/C(=O)OCCN(CCOC(=O)/C=C/C(=O)O)C(=O)/C=C/C(=O)O` [ligand 1-8], for which the calcium chelation value in series [13] (setting [15]) was determined as 58.

With `O=C(O)/C=C/C(=O)OCCN(CCOC(=O)/C=C/C(=O)O)C(=O)/C=C/C(=O)O` [ligand 1-9], the calcium chelation value in series [13] (setting [15]) amounted to 83.

Regarding `O=C(O)/C=C/C(=O)OCCN(CCOC(=O)/C=C/C(=O)O)C(=O)/C=C/C(=O)O` [ligand 1-10], in series [13] (setting [15]), the calcium chelation value is given as 62.

As to `O=C(O)/C=C/C(=O)OCCN(CCOC(=O)/C=C/C(=O)O)C(=O)/C=C/C(=O)O` [ligand 1-11], in [13] (setting [15]), the calcium chelation value stood at 60.

With `O=C(O)/C=C/C(=O)OCCN(CCOC(=O)/C=C/C(=O)O)C(=O)/C=C/C(=O)O` [ligand 1], the stability constant is listed as 10.7 in series [14] (aluminium (Al^3+)); 7.8 in series [14] (barium (Ba^2+)); 8.5 in series [14] (cadmium (Cd^2+)); 9.3 in [14] (calcium (Ca^2+)); 10.4 in [14] (cobolt (Co^2+)); 12.8 in [14] (copper (Cu2+)). The stability constant in [14] (iron (Fe^2+)) came to 14.8; in [14] (iron (Fe^3+)), 9.5; in [14] (magnesium (Mg^2+)), 8.3; in series [14] (manganese (Mn^2+)), 10.4; in [14] (mercury (Hg^2+)), 7.8; in series [14] (nickel (Ni^2+)), 5.0. Further, the stability constant in series [14] (strontium (Sr^2+)) amounted to 7.7; in [14] (tin (Pb^2+)), 11.4; in series [14] (zinc (Zn^2+)), 9.0.

In the case of `O=C(O)CCC(=O)OCCN(CCOC(=O)CCC(=O)O)C(=O)CCC(=O)O` [ligand 2-1], the calcium chelation value in [13] (setting [16]) stood at 5.

Regarding `O=C(O)CCC(=O)OCCN(CCOC(=O)CCC(=O)O)C(=O)CCC(=O)O` [ligand 2-2], the calcium chelation value in series [13] (setting [16]) was found to be 8.

Regarding `O=C(O)CCC(=O)OCCN(CCOC(=O)CCC(=O)O)C(=O)CCC(=O)O` [ligand 2-3], the calcium chelation value in series [13] (setting [16]) was 55.

In the case of `O=C(O)CCC(=O)OCCN(CCOC(=O)CCC(=O)O)C(=O)CCC(=O)O` [ligand 2-4], the calcium chelation value in [13] (setting [16]) is reported as 21.

`O=C(O)CCC(=O)OCCN(CCOC(=O)CCC(=O)O)C(=O)CCC(=O)O` [ligand 2-5]: the calcium chelation value in series [13] (setting [16]) stood at 45.

As for `O=C(O)CCC(=O)OCCN(CCOC(=O)CCC(=O)O)C(=O)CCC(=O)O` [ligand 2-6], in series [13] (setting [16]), the calcium chelation value is recorded as 87.

Regarding `O=C(O)CCC(=O)OCCN(CCOC(=O)CCC(=O)O)C(=O)CCC(=O)O` [ligand 2-7], in [13] (setting [16]), the calcium chelation value is reported as 42.

As for `O=C(O)CCC(=O)OCCN(CCOC(=O)CCC(=O)O)C(=O)CCC(=O)O` [ligand 2-8], the calcium chelation value in series [13] (setting [16]) is reported as 83.

With `O=C(O)CCC(=O)OCCN(CCOC(=O)CCC(=O)O)C(=O)CCC(=O)O` [ligand 2-9], the calcium chelation value in [13] (setting [16]) is given as 85.

On to `O=C(O)CCC(=O)OCCN(CCOC(=O)CCC(=O)O)C(=O)CCC(=O)O` [ligand 2], for which the stability constant was 11.4 in [14] (aluminium (Al^3+)); 6.2 in series [14] (barium (Ba^2+)); 7.2 in [14] (cadmium (Cd^2+)); 10.1 in series [14] (calcium (Ca^2+)); 7.5 in [14] (cobolt (Co^2+)); 10.5 in series [14] (copper (Cu2+)). Further, the stability constant in [14] (iron (Fe^2+)) is 12.3; in [14] (iron (Fe^3+)), 7.5; in series [14] (magnesium (Mg^2+)), 8.1; in series [14] (manganese (Mn^2+)) it was 9.1; in series [14] (mercury (Hg^2+)) it was 9.5; in series [14] (nickel (Ni^2+)), 5.4. For the same compound, the stability constant in series [14] (strontium (Sr^2+)) worked out at 5.3; in [14] (tin (Pb^2+)), 9.9; in [14] (zinc (Zn^2+)), 7.9.

`O=C(O)c1ccccc1C(=O)OCCN(CCOC(=O)c1ccccc1C(=O)O)C(=O)c1ccccc1C(=O)O` [ligand 3-1]: in [13] (setting [17]), the calcium chelation value is listed as 25.

As for `O=C(O)c1ccccc1C(=O)OCCN(CCOC(=O)c1ccccc1C(=O)O)C(=O)c1ccccc1C(=O)O` [ligand 3-2], the calcium chelation value in [13] (setting [17]) was determined as 15.

In the case of `O=C(O)c1ccccc1C(=O)OCCN(CCOC(=O)c1ccccc1C(=O)O)C(=O)c1ccccc1C(=O)O` [ligand 3-3], the calcium chelation value in series [13] (setting [17]) is listed as 81.

For the compound `O=C(O)c1ccccc1C(=O)OCCN(CCOC(=O)c1ccccc1C(=O)O)C(=O)c1ccccc1C(=O)O` [ligand 3-4], in series [13] (setting [17]), the calcium chelation value was found to be 70.

For `O=C(O)c1ccccc1C(=O)OCCN(CCOC(=O)c1ccccc1C(=O)O)C(=O)c1ccccc1C(=O)O` [ligand 3-5], the calcium chelation value in [13] (setting [17]) worked out at 75.

`O=C(O)c1ccccc1C(=O)OCCN(CCOC(=O)c1ccccc1C(=O)O)C(=O)c1ccccc1C(=O)O` [ligand 3-6]: the calcium chelation value in [13] (setting [17]) stood at 88.

As to `O=C(O)c1ccccc1C(=O)OCCN(CCOC(=O)c1ccccc1C(=O)O)C(=O)c1ccccc1C(=O)O` [ligand 3-7], in [13] (setting [17]), the calcium chelation value was 76.
